Literature values, collected in publication PMC12751000, “Dual Agonist/Antagonist Modulation of α9-Containing Nicotinic Acetylcholine Receptors by 2‑Ammoniumethyl Ethers of Stilbenol and Stilbenol Analogues” (Journal of Medicinal Chemistry, 2025).
pEC50: −log10 of the molar value.

Molecular target: α7[L247T] mutant receptor
Set-up: method as in previous findings, citation number not given
Details: chick α7[L247T] mutant; ref: previous findings, citation number not given; cited from earlier work

For CC[N+](CC)(CC)CCOc1ccc(/C=C/c2ccccc2)cc1 [Compound 1, 2-triethylammonium ethyl ether of 4-stilbenol], the pEC50 is given as 9.70.
